Experiments:
[1] = physchem
[2] = logP by reverse phase HPLC retention time against a calibration curve; conditions: chromatographic method, Zorbax Eclipse XDB C8, 30° C.
[3] = H460 tumor-bearing nude mice, intravenous, dosed at MTD as free drug, 24 hour time point, FIG. 2
Protocol: Animals were inoculated with 5×10^5 H460 small cell lung cancer cells via subcutaneous injection to the flank. Tumors were allowed to reach an approximate volume of ˜500 mm^3. Animals were then randomized into treatment groups of 3 animals per time point and were dosed at the maximum tolerated dose (MTD). The 24 hour time point was used as a benchmark across compounds
Tumor platinum levels were determined by inductively coupled plasma mass spectrometry (ICP-MS). Tumors were excised from animals and dissolved in fuming nitric acid (60% w/w) by adding four parts nitric acid to 1 part tumor w/w and heating overnight at 60 degrees Centigrade. The resulting digest was diluted 1:10 in ICP-MS analysis buffer (1% nitric acid, 2% Triton® x-100), and directly introduced into the ICP-MS unit by peristaltic pump. The end dilution factor for the samples as introduced to the ICP-MS was 50×.

[4] = Maximum tolerated dose used in the mouse PK/PD study; assay type: in vivo; conditions: H460 tumor-bearing mice

Compound | chromatographic logP [1] | Measured LogP [2] | platinum levels in the tumor [3] | Dose (mg/kg), dosed at the maximum tolerated dose (MTD) [4]
CCNC(=O)[O][Pt]([NH2])([NH2])([Cl])([Cl])[O]C(C)=O [Compound 1] | < 1 |  |  | 
CCNC(=O)[O][Pt]([NH2])([NH2])([Cl])([Cl])[O]C(=O)NCC [Compound 5] |  | <1 | higher platinum levels | 30 mg/kg
